# Test results reported in ChEMBL document CHEMBL1201862, “PubChem BioAssay data set” (2004).
# Active and inactive are the calls of the source.
# Legend:
# Vero = experiment: viability loss in Vero cells – cell-based, plate reader, cherry-pick samples, cytotoxicity control, dose response (AID 687020); assay type: functional; conditions: Chlorocebus sabaeus
# Paired box protein Pax-8 = Paired box protein Pax-8 (Homo sapiens, UniProt Q06710); experiment: PAX8 transcriptional activity inhibition in RMG-I – RMG-I cells, luciferase, cherry-pick, dose response (AID 687027); assay type: functional, cell-based;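 also: luciferase reporter driven by Pax8 target thyroperoxidase promoter measured by SteadyGlo luminescence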
# Chain of Paired box protein Pax-8 (Q06710 whole entry): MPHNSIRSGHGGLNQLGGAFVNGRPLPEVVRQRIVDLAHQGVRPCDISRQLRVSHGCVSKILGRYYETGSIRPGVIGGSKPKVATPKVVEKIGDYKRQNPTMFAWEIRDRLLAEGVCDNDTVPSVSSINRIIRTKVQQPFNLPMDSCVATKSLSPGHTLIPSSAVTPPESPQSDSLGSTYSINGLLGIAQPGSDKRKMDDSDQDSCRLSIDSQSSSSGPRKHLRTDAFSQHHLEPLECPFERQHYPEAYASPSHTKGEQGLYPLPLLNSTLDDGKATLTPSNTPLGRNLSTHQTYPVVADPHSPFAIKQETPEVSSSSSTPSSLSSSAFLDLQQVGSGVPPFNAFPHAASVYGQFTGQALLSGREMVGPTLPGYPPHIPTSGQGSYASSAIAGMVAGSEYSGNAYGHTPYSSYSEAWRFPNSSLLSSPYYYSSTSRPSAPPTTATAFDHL
# [1] = OVCAR8 cell viability loss – plate reader, dry powder samples, PAX8 project, dose response (AID 743197); assay type: functional, cell-based; conditions: OVCAR-8
# [2] = molecular target: Induced myeloid leukemia cell differentiation protein Mcl-1 (Homo sapiens, UniProt Q07820); experiment: blockers of MCL1 binding to BIM peptide – biochemical, fluorescence polarization, BIM-BH3 peptide, 1536-well, dose response (AID 2217)
# Chain of Induced myeloid leukemia cell differentiation protein Mcl-1 (Q07820 whole entry): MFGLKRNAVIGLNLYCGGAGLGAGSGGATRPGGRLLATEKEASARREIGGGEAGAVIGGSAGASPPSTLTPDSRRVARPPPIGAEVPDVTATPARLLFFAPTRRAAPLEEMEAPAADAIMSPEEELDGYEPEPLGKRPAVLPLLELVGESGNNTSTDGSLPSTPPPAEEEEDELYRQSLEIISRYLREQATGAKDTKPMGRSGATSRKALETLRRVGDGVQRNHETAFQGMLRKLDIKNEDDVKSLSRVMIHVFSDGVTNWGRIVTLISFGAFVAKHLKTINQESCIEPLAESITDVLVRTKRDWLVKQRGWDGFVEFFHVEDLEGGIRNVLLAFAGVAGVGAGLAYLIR
# H9c2 = experiment: cells; assay type: functional, cell-based; conditions: Rattus norvegicus, H9c2, Myocardium;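 also: confirmatory concentration-response retest of ultra-high-throughput screening hits for modulation of myocardial damage; cell death induced by hydrogen peroxide oxidative stress; compound pretreatment for 60 min then peroxide exposure for 2 h; potency is for protecting the cells against peroxide damage rather than for killing them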
# Bcl-2-like protein 1 = Bcl-2-like protein 1 (Homo sapiens, UniProt Q07817); experiment: blockers of BCLXL peptide binding – biochemical, fluorescence polarization, 1536-well, selectivity assay for MCL1 inhibitor project, dose response (AID 2218)
# Chain of Bcl-2-like protein 1 (Q07817 whole entry): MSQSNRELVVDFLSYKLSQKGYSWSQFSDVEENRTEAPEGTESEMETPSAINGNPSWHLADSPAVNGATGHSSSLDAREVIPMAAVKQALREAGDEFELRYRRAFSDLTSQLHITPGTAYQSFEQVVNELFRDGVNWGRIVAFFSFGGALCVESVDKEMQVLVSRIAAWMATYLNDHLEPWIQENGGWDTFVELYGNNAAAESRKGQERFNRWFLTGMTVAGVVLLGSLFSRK
# [3] = NIH3T3 cell viability loss – ATP luminescence, mouse fibroblasts, counter-screen, dose response (AID 2010); assay type: functional, cell-based;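 also: cells exposed to compound for about 90 hours before reading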
# [4] = Trypanosoma cruzi growth suppression in host cells – NIH3T3 host cells, beta-gal luminescence, confirmation (AID 2044); assay type: functional, cell-based;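 also: intracellular parasites grown in NIH/3T3 mouse fibroblasts as host cells; luminescent beta-galactosidase reporter signal from transgenic T. cruzi replicating inside host cells; inhibitors lower the luminescence signal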
# [5] = toxicity toward HepG2 liver cells – cell-based, plate reader, cherry-pick, antagonist series, cytotoxicity control, dose response (AID 743416); assay type: functional
# [6] = blockade of melanocortin 4 receptor signaling – cell-based, plate reader, cherry pick, counter-screen for LGR2 antagonist project, dose response (AID 743444); assay type: functional;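 also: transfected HEK 293 cells stimulated with alpha-MSH peptide; potency of inhibitors of the alpha-MSH evoked signal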
# [7] = blockers of bursicon-stimulated LGR2 cAMP reporter – cell-based, HEK293, CRE-luciferase reporter, cherry pick, set 2, dose response (AID 743343); assay type: functional;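 also: transfected cells were stimulated with diluted bursicon conditioned medium after compound addition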
# [8] = viability loss in HEK293 cells – cell-based, plate reader, cherry-picked samples, cytotoxicity control, dose response (AID 743446); assay type: functional
# [9] = A549 cell cytotoxicity, dose response, cytotoxicity control, plate reader, cherry-pick, antagonist series (AID 743412); assay type: functional, cell-based
# [10] = Counterscreen for activators of the function of SWI/SNF related, matrix associated, actin dependent regulator of chromatin, subfamily a, member 2 (SMARCA2, BRM): Luminescence-based cell-based high throughput dose response assay to identify non-selective compounds using the VP16 reporter assay.; assay type: functional
# [11] = fluconazole-exposed Candida albicans growth modulators – fluorescence, retest, confirmation (AID 2467); assay type: functional, cell-based
# INS1 = experiment: INS-1E survival protection against cytokine death – cell-based, luminescence, retest, dose response (AID 449756); assay type: functional; conditions: Rattus norvegicus;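 also: cell death triggered by IL-1 beta plus TNF-alpha plus IFN-gamma mixture; protective hits raise ATP signal compared with cytokine alone wells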
# [12] = NIH-3T3 fibroblast cytotoxicity, dose response, cytotoxicity control, cell-based, fluorescence, Alamar Blue, secondary assay (AID 2327); assay type: functional;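 also: NIH-3T3 mouse fibroblasts cultured with fluconazole at 8 µg/mL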
# [13] = molecular target: SWI/SNF-related matrix-associated actin-dependent regulator of chromatin subfamily A member 2 (Homo sapiens, UniProt P51531); experiment: Luminescence-based cell-based high throughput dose response assay to identify activators of the function of SWI/SNF related, matrix associated, actin dependent regulator of chromatin, subfamily a, member 2 (SMARCA2, BRM).; assay type: functional
# Chain of SWI/SNF-related matrix-associated actin-dependent regulator of chromatin subfamily A member 2 (P51531 whole entry): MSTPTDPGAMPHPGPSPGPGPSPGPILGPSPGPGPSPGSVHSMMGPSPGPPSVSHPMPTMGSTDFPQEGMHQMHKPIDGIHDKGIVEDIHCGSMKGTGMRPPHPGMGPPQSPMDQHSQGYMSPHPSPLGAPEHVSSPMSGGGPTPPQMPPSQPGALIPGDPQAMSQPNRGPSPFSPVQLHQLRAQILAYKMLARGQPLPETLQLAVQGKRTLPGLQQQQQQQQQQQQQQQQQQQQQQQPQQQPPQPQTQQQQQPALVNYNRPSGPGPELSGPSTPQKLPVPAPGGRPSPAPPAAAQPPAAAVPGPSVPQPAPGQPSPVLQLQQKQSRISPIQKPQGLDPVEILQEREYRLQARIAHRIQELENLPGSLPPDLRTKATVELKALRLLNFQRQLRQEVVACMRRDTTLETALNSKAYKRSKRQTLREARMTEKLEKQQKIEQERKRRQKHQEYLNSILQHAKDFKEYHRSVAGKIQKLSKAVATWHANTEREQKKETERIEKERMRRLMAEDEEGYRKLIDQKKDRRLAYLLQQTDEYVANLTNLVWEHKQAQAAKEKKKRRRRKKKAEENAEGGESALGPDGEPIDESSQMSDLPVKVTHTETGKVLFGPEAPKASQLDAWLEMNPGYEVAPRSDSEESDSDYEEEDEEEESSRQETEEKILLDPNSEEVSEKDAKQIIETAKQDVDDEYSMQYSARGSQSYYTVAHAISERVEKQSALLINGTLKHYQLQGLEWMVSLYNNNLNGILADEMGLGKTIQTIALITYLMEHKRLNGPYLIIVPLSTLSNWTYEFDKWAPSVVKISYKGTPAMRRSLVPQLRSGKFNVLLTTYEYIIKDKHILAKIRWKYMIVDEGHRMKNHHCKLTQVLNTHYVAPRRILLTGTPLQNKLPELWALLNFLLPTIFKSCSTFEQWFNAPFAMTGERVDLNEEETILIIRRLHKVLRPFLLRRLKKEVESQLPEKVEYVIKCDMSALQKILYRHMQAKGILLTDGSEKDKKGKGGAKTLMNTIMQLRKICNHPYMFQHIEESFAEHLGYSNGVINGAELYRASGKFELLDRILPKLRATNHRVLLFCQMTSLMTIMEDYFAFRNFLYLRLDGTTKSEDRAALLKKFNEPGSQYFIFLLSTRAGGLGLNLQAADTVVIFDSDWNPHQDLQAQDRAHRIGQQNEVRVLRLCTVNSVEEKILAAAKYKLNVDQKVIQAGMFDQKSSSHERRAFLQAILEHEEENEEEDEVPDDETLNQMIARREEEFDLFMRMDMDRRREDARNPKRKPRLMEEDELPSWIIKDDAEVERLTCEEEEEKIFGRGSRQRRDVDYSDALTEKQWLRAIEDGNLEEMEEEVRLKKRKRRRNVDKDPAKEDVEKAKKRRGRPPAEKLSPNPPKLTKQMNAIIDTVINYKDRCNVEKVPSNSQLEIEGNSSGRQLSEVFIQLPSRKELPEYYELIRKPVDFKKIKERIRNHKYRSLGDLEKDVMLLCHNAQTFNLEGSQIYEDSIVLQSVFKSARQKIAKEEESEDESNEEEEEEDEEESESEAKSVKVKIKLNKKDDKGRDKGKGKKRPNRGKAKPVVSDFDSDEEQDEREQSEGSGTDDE
# [14] = molecular target: T1, Heat shock factor protein 1 (Mus musculus, UniProt P38532); experiment: decrease of HSF1-responsive luciferase luminescence – cell-based, NIH3T3, dose retest, confirmation (AID 2382); assay type: functional;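 also: NIH3T3 fibroblasts with HSF1-driven luciferase reporter stressed by proteasome inhibitor MG132; luminescence from HSF1-driven luciferase expression after 8 hours of MG132 stress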
# T1 sequence (P38532 whole entry): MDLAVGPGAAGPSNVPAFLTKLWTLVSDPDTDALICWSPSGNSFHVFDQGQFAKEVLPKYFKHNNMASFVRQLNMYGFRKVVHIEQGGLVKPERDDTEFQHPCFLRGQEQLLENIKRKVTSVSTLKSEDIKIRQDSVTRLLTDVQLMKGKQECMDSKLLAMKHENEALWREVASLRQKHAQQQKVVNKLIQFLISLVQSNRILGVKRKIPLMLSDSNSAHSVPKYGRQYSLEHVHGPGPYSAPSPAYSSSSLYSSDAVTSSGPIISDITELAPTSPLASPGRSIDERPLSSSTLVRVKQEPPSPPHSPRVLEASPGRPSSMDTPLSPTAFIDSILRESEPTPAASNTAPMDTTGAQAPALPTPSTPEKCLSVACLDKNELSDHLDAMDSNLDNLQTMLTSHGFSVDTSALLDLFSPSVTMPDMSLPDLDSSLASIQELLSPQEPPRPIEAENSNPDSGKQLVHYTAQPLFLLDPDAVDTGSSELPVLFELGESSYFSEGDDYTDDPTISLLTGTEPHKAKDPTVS
# [15] = T. cruzi growth inhibition in host cells, dose response, cell-based, plate reader, dry powder, set 2 (AID 652275); assay type: functional
# [16] = molecular target: Photoreceptor-specific nuclear receptor (Homo sapiens, UniProt Q9Y5X4); assay type: functional, cell-based;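 also: CHO-S cells with Gal4-NCOR and VP16-NR2E3 two-hybrid luciferase reporter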
# Chain of Photoreceptor-specific nuclear receptor (Q9Y5X4 whole entry, the tested form may be a part): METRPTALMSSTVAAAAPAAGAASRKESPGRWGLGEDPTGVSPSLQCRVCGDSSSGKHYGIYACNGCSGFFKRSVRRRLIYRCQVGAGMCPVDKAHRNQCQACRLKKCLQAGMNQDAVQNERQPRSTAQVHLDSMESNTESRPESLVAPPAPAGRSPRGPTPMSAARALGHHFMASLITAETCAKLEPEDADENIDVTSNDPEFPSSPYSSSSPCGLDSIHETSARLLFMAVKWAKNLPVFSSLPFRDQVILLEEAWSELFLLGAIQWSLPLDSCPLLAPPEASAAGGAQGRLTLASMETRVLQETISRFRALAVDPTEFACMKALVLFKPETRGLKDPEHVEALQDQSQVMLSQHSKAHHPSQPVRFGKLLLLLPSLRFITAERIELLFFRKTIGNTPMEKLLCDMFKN
# fMet-Leu-Phe receptor = molecular target: T2, fMet-Leu-Phe receptor (Homo sapiens, UniProt P21462); experiment: formyl peptide receptor binders – dose response (AID 519); assay type: functional
# T2 sequence (P21462 whole entry): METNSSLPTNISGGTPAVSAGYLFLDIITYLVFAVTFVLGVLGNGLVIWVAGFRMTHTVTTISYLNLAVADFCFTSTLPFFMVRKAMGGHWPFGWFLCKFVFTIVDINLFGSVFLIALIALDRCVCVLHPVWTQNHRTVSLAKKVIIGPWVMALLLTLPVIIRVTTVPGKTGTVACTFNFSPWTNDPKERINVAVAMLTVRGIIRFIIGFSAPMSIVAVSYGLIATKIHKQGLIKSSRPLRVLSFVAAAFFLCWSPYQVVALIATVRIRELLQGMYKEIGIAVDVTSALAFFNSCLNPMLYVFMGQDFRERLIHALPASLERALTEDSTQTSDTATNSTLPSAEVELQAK
# [17] = viability loss in CEM21 cells – cell-based, CellTiter-Glo luminescence, cherry-picked, cytotoxicity control for viral fusion inhibitor project, dose response (AID 652042); assay type: functional;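 also: potency for signal decrease meaning cytotoxicity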
# [18] = tested on: Streptococcus sp. 'group A'; experiment: Streptococcus pyogenes SK(-)GAS viability under kanamycin – luminescence, BacTiterGlo, confirmation, counter-screen for streptokinase expression inhibitor project, dose response (AID 1900); assay type: functional, organism-based
# [19] = HIV-1 AD8 envelope cell-cell fusion blockers – cherry-pick, dose response (AID 652062); assay type: functional, cell-based;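 also: luciferase signal from cell-cell fusion driven by HIV-1 clade B AD8 Env; potency is for inhibitors of fusion seen as a drop in luminescence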
# [20] = blockers of HIV-1 ZM109 envelope-driven cell-cell fusion – HeLa effector, CEM target cells, luciferase, cherry-pick, dose response (AID 652058); assay type: functional, cell-based;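 also: luciferase signal from HIV-1 Env mediated cell-cell fusion of effector and target cells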
# [21] = blockers of HIV-1 envelope-mediated cell-cell fusion – cherry-pick, dose response (AID 652057); assay type: functional, cell-based
# Streptococcus = experiment: GAS UMAA2166 growth inhibition – luminescence, BacTiterGlo, counter-screen for streptokinase expression inhibitor project, dose response (AID 1915); assay type: functional, organism-based;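 also: potency for reduction of bacterial viability or growth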
structure (smiles),measurement,setting,value
COc1ccc(C(C(=O)NC2CCCC2)N2CCc3ccccc32)cc1 (centres undefined),AC50,Vero,29.5 µM (active)
O=C(C[C@@H]1CC[C@H]2[C@@H](COC[C@@H](O)CN2Cc2cccc(C(F)(F)F)c2)O1)NCc1ccc(F)cc1,AC50,Paired box protein Pax-8,27.9 µM (active)
same,AC50,[1],51.7 µM (active)
CNc1ccccc(C(=O)/C=C/c2ccccc2OC)c1=O,IC50,[2],> 109 µM (not active)
same,IC50,H9c2,11.5 µM (active)
same,IC50,Bcl-2-like protein 1,> 109 µM (not active)
CCc1ccc(CN2CCCC(CNC(=O)c3cccc(OC)c3OC)C2)cc1 (centres undefined),EC50,[3],> 60 µM (not active)
same,EC50,[4],< 0.1 µM (active)
same,EC50,cells,0.37 µM (active)
O=C1c2ccccc2S(=O)(=O)c2cc(N3CCN(C(=O)c4ccccc4)CC3)ccc21,AC50,[5],> 52 µM (inactive)
same,AC50,[6],22.3 µM (active)
same,AC50,[7],20.8 µM (active)
same,AC50,[8],> 52 µM (inactive)
same,AC50,[9],23.5 µM (active)
O=C(Oc1c(CN2CCOCC2)cc(Cl)c2cccnc12)c1ccccc1Br,EC50,[10],> 91.1 µM (inactive)
same,EC50,[11],3.49 µM (active)
same,AC50,INS1,6.56 µM (active)
same,EC50,[12],135 µM (active)
same,EC50,[13],> 91.1 µM (inactive)
same,EC50,[14],31.3 µM (active)
CN(C)C(=O)c1cccc(-c2ccc([C@@H]3[C@@H](CO)N4CCCCN(C(=O)C5CCC5)C[C@H]34)cc2)c1,AC50,[15],14.4 µM (active)
COc1ccc2c(CC(=O)Nc3ncc(C)s3)coc2c1,EC50,[10],> 91.2 µM (inactive)
same,IC50,[16],1.11 µM (active)
same,EC50,[13],> 91.2 µM (inactive)
COc1ccc(CN2CCCC(CO)(Cc3cccc(Cl)c3)C2)cc1OC (centres undefined),EC50,[3],> 30 µM (not active)
same,EC50,[4],< 0.1 µM (active)
same,EC50,cells,0.352 µM (active)
COc1ccc(C(=O)C2=C(O)C(=O)N(Cc3ccco3)C2c2ccc(OC)cc2OC)cc1 (centres undefined),Ki,fMet-Leu-Phe receptor,> 66.7 µM (inactive)
CC1CCCCN1S(=O)(=O)c1ccc(C(=O)Nc2nnc(-c3cccs3)o2)cc1 (centres undefined),AC50,[17],35.7 µM (active)
same,EC50,[18],2.05 µM (active)
same,EC50,[11],1.11 µM (active)
same,AC50,[19],16.6 µM (active)
same,AC50,[20],14.6 µM (active)
same,AC50,[21],32.8 µM (active)
same,EC50,Streptococcus,4.49 µM (active)
same,EC50,[12],> 150 µM (inactive)
Cc1sc(NC(=O)c2ccco2)c(C(c2cccnc2)N2CCN(c3ccc(F)cc3)CC2)c1C (centres undefined),EC50,[3],> 60 µM (not active)
same,EC50,[4],< 0.1 µM (active)
same,EC50,cells,0.385 µM (active)
